Laboratory results from patent US20240066027A1 (DOMAIN THERAPEUTICS, priority 2020, published 2024).
Counter-ions that a name gives are not always drawn.

Biological target: T1, human PAR-2 (hPAR-2) receptor expressed in HEK-293 T cells in an endogenous manner (Homo sapiens, UniProt P55085)
T1 construct: human PAR-2 (hPAR-2) receptor expressed in HEK-293 T cells in an endogenous manner; endogenous in cells; host or cells: HEK-293 T cells
T1 sequence (P55085 26-397): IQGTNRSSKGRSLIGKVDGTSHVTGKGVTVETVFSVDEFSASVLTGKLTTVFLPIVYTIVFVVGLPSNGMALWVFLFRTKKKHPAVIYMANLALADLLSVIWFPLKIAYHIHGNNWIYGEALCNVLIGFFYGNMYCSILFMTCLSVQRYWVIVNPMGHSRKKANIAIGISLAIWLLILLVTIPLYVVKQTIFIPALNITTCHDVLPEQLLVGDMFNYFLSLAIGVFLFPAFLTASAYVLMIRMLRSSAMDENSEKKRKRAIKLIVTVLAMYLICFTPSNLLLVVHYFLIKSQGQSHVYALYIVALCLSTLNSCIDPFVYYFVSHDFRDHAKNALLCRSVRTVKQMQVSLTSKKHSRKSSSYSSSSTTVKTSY
Test: In vitro human PAR-2 functional antagonist activity using calcium assays (Fluo4AM, FLIPR Tetra)
Type: cell-based
Conditions: HEK-293 T cells stimulated by an EC80 of the 2-Furoyl-LIGRLO-NH2 peptide after 10 min incubation with compound; 20 concentrations, duplicate, two independent experiments
Summary of the method: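 Antagonist activity was taken as the decrease in the calcium response to an EC80 of 2-Furoyl-LIGRLO-NH2, measured over 5 min. The agonist was added after a 10 min compound-alone step on the same plate. The HEK-293 T cells express PAR-2 endogenously and were loaded with 1 μM Fluo4AM. Signals were referenced to buffer and EC80-alone controls.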

IC50	SMILES
20 to 10000 nM	Cc1cc(NC(=O)C2CCN(C(=O)c3ccc4c(-c5ccc(Cl)c(F)c5)cn(C(C)(C)C)c4n3)CC2)nc(C)c1C(=O)O [Example 123, 6-(1-(1-(tert-butyl)-3-(4-chloro-3-fluorophenyl)-1H-pyrrolo[2,3-b]pyridine-6-carbonyl)piperidine-4-carboxamido)-2,4-dimethylnicotinic acid]
< 20 nM	CC(C)(C)n1cc(-c2ccc(Cl)c(F)c2)c2ccc(C(=O)N3C[C@@H]4[C@@H](CC(=O)O)[C@@H]4C3)nc21 [Example 124, 2-((1R,5S,6s)-3-(1-(tert-butyl)-3-(4-chloro-3-fluorophenyl)-1H-pyrrolo[2,3-b]pyridine-6-carbonyl)-3-azabicyclo[3.1.0]hexan-6-yl)acetic acid]
20 to 10000 nM	CC(C)(C)n1cc(-c2ccc(Cl)c(F)c2)c2ccc(C(=O)N3CCC(CC(=O)O)CC3)nc21 [Example 125, 2-(1-(1-(tert-butyl)-3-(4-chloro-3-fluorophenyl)-1H-pyrrolo[2,3-b]pyridine-6-carbonyl)piperidin-4-yl)acetic acid]
< 20 nM	CCOCC(C)(C)n1cc(-c2ccc(Cl)c(F)c2)c2ccc(C(=O)N3CCN(c4cc(C)c(C(=O)O)c(C)n4)CC3(C)C)nc21 [Example 126, 6-(4-(3-(4-chloro-3-fluorophenyl)-1-(1-ethoxy-2-methylpropan-2-yl)-1H-pyrrolo[2,3-b]pyridine-6-carbonyl)-3,3-dimethylpiperazin-1-yl)-2,4-dimethylnicotinic acid]
20 to 10000 nM	Cc1cc(N2CCCN(C(=O)c3ccc4c(-c5ccc(Cl)c(F)c5)cn(C(C)(C)C)c4n3)CC2)nc(C)c1C(=O)O [Example 127, 6-(4-(1-(tert-butyl)-3-(4-chloro-3-fluorophenyl)-1H-pyrrolo[2,3-b]pyridine-6-carbonyl)-1,4-diazepan-1-yl)-2,4-dimethylnicotinic acid]
> 10000 nM	Cc1cc(N2CCC3(CCN(C(=O)c4ccc5c(-c6ccc(Cl)c(F)c6)cn(C(C)(C)C)c5n4)C3)C2)nc(C)c1C(=O)O (stereo not drawn) [Example 128, 6-(7-(1-(tert-butyl)-3-(4-chloro-3-fluorophenyl)-1H-pyrrolo[2,3-b]pyridine-6-carbonyl)-2,7-diazaspiro[4.4]nonan-2-yl)-2,4-dimethylnicotinic acid]
< 20 nM	CCn1cc(-c2ccc(Cl)c(F)c2)c2ccc(C(=O)N3CCN(c4cc(C)c(C(=O)O)c(C)n4)CC3(C)C)nc21 [Example 129, 6-(4-(3-(4-chloro-3-fluorophenyl)-1-ethyl-1H-pyrrolo[2,3-b]pyridine-6-carbonyl)-3,3-dimethylpiperazin-1-yl)-2,4-dimethylnicotinic acid]
20 to 10000 nM	Cc1cc(N2CCN(C(=O)c3ccc4c(-c5ccc(Cl)c(F)c5)cn(C(C)(C)C)c4n3)[C@H](C)C2)nc(C)c1C(=O)O [Example 130, (R)-6-(4-(1-(tert-butyl)-3-(4-chloro-3-fluorophenyl)-1H-pyrrolo[2,3-b]pyridine-6-carbonyl)-3-methylpiperazin-1-yl)-2,4-dimethylnicotinic acid]
< 20 nM	Cc1cc(N2CCN(C(=O)c3ccc4c(-c5ccc(Cl)c(F)c5)cn(C(C)(C)c5ccccn5)c4n3)C(C)(C)C2)nc(C)c1C(=O)O [Example 131, 6-(4-(3-(4-chloro-3-fluorophenyl)-1-(2-(pyridin-2-yl)propan-2-yl)-1H-pyrrolo[2,3-b]pyridine-6-carbonyl)-3,3-dimethylpiperazin-1-yl)-2,4-dimethylnicotinic acid]
20 to 10000 nM	COCC1CN(C(=O)c2ccc3c(-c4ccc(Cl)c(F)c4)cn(C(C)(C)C)c3n2)CCN1c1cc(C)c(C(=O)O)c(C)n1 (stereo not drawn) [Example 132, 6-(4-(1-(tert-butyl)-3-(4-chloro-3-fluorophenyl)-1H-pyrrolo[2,3-b]pyridine-6-carbonyl)-2-(methoxymethyl)piperazin-1-yl)-2,4-dimethyinicotinic acid]
> 10000 nM	Cc1cc(N2CCN(C(=O)c3ccc4c(-c5ccc(Cl)c(F)c5)cn(CC(=O)O)c4n3)C(C)(C)C2)nc(C)c1C(=O)O [Example 133, 6-(4-(1-(carboxymethyl)-3-(4-chloro-3-fluorophenyl)-1H-pyrrolo[2,3-b]pyridine-6-carbonyl)-3,3-dimethylpiperazin-1-yl)-2,4-dimethylnicotinic acid]
< 20 nM	COCCn1cc(-c2ccc(Cl)c(F)c2)c2ccc(C(=O)N3CCN(c4cc(C)c(C(=O)O)c(C)n4)CC3(C)C)nc21 [Example 134, 6-(4-(3-(4-chloro-3-fluorophenyl)-1-(2-methoxyethyl)-1H-pyrrolo[2,3-b]pyridine-6-carbonyl)-3,3-dimethylpiperazin-1-yl)-2,4-dimethyinicotinic acid]
20 to 10000 nM	Cc1cc(N2CCN(C(=O)c3ccc4c(-c5ccc(Cl)c(F)c5)cn(Cc5cccnc5)c4n3)C(C)(C)C2)nc(C)c1C(=O)O [Example 135, 6-(4-(3-(4-chloro-3-fluorophenyl)-1-(pyridin-3-ylmethyl)-1H-pyrrolo[2,3-b]pyridine-6-carbonyl)-3,3-dimethylpiperazin-1-yl)-2,4-dimethylnicotinic acid hydrochloride]
< 20 nM	COC[C@H](C)n1cc(-c2ccc(Cl)c(F)c2)c2ccc(C(=O)N3CCN(c4cc(C)c(C(=O)O)c(C)n4)CC3(C)C)nc21 [Example 136, (S)-6-(4-(3-(4-chloro-3-fluorophenyl)-1-(1-methoxypropan-2-yl)-1H-pyrrolo[2,3-b]pyridine-6-carbonyl)-3,3-dimethylpiperazin-1-yl)-2,4-dimethylnicotinic acid]
< 20 nM	CC1(C)CN(c2ccc(C(=O)O)cn2)CCN1C(=O)c1ccc2c(-c3ccc(Cl)c(F)c3)cn(C(C)(C)C)c2n1 [Example 137, 6-(4-(1-(tert-butyl)-3-(4-chloro-3-fluorophenyl)-1H-pyrrolo[2,3-b]pyridine-6-carbonyl)-3,3-dimethylpiperazin-1-yl)nicotinic acid]
< 20 nM	CC1(C)CN(c2ccc(C(N)=O)cn2)CCN1C(=O)c1ccc2c(-c3ccc(Cl)c(F)c3)cn(C(C)(C)C)c2n1 [Example 138, 6-(4-(1-(tert-butyl)-3-(4-chloro-3-fluorophenyl)-1H-pyrrolo[2,3-b]pyridine-6-carbonyl)-3,3-dimethylpiperazin-1-yl)nicotinamide]
< 20 nM	CN(C)C(=O)c1ccc(N2CCN(C(=O)c3ccc4c(-c5ccc(Cl)c(F)c5)cn(C(C)(C)C)c4n3)C(C)(C)C2)nc1 [Example 139, 6-(4-(1-(tert-butyl)-3-(4-chloro-3-fluorophenyl)-1H-pyrrolo[2,3-b]pyridine-6-carbonyl)-3,3-dimethylpiperazin-1-yl)-N,N-dimethylnicotinamide]
< 20 nM	COC[C@@H](C)n1cc(-c2ccc(Cl)c(F)c2)c2ccc(C(=O)N3CCN(c4cc(C)c(C(=O)O)c(C)n4)CC3(C)C)nc21 [Example 140, (R)-6-(4-(3-(4-chloro-3-fluorophenyl)-1-(1-methoxypropan-2-yl)-1H-pyrrolo[2,3-b]pyridine-6-carbonyl)-3,3-dimethylpiperazin-1-yl)-2,4-dimethyinicotinic acid]
< 20 nM	Cc1cc(N2CCN(C(=O)c3ccc4c(-c5ccc(F)c(F)c5)cn(CC(C)C)c4n3)C(C)(C)C2)nc(C)c1C(=O)O [Example 141, 6-(4-(3-(3,4-difluorophenyl)-1-isobutyl-1H-pyrrolo[2,3-b]pyridine-6-carbonyl)-3,3-dimethylpiperazin-1-yl)-2,4-dimethylnicotinic acid]
< 20 nM	Cc1ccc(-c2cn(CC(C)C)c3nc(C(=O)N4CCN(c5cc(C)c(C(=O)O)c(C)n5)CC4(C)C)ccc23)cc1F [Example 142, 6-(4-(3-(3-fluoro-4-methylphenyl)-1-isobutyl-1H-pyrrolo[2,3-b]pyridine-6-carbonyl)-3,3-dimethylpiperazin-1-yl)-2,4-dimethylnicotinic acid]
< 20 nM	Cc1cc(N2CCN(C(=O)c3ccc4c(-c5cc(F)c(F)c(F)c5)cn(CC(C)C)c4n3)C(C)(C)C2)nc(C)c1C(=O)O [Example 143, 6-(4-(1-isobutyl-3-(3,4,5-trifluorophenyl)-1H-pyrrolo[2,3-b]pyridine-6-carbonyl)-3,3-dimethylpiperazin-1-yl)-2,4-dimethylnicotinic acid]
< 20 nM	Cc1cc(N2CCN(C(=O)c3ccc4c(-c5ccc(C(F)(F)F)c(F)c5)cn(CC(C)C)c4n3)C(C)(C)C2)nc(C)c1C(=O)O [Example 144, 6-(4-(3-(3-fluoro-4-(trifluoromethyl)phenyl)-1-isobutyl-1H-pyrrolo[2,3-b]pyridine-6-carbonyl)-3,3-dimethylpiperazin-1-yl)-2,4-dimethylnicotinic acid]
> 10000 nM	COc1ccc(-c2cn(CC(C)C)c3nc(C(=O)N4CCNC(=O)C4(C)C)ccc23)cc1OC [Example 145, 4-(3-(3,4-dimethoxyphenyl)-1-isobutyl-1H-pyrrolo[2,3-b]pyridine-6-carbonyl)-3,3-dimethylpiperazin-2-one]
20 to 10000 nM	Cc1cc(N(C)C2CCN(C(=O)c3ccc4c(-c5ccc(Cl)c(F)c5)cn(C(C)(C)C)c4n3)CC2)nc(C)c1C(=O)O [Example 147, 6-((1-(1-(tert-butyl)-3-(4-chloro-3-fluorophenyl)-1H-pyrrolo[2,3-b]pyridine-6-carbonyl)piperidin-4-yl)(methyl)amino)-2,4-dimethyinicotinic acid]
